Assay results from ChEMBL document CHEMBL5360540, “Antitumor effect of 3-(quinolin-2-ylmethylene)-4,6-dimethyl-5-hydroxy-7-azaoxindole down-regulating the Gas6-Axl axis” (Eur J Med Chem, 2023).

Assays:
[1] = target: Macrophage colony-stimulating factor 1 receptor (Homo sapiens, UniProt P07333); test: Inhibition of human CSF1R using MEK1 as substrate incubated for 40 mins by gamma33P-ATP based scintillation counter analysis
[2] = target: Platelet-derived growth factor receptor beta (Homo sapiens, UniProt P09619); test: Inhibition of human PDGFRbeta using MEK1 as substrate incubated for 40 mins by gamma33P-ATP based scintillation counter analysis
Sequence of Platelet-derived growth factor receptor beta (P09619 whole entry): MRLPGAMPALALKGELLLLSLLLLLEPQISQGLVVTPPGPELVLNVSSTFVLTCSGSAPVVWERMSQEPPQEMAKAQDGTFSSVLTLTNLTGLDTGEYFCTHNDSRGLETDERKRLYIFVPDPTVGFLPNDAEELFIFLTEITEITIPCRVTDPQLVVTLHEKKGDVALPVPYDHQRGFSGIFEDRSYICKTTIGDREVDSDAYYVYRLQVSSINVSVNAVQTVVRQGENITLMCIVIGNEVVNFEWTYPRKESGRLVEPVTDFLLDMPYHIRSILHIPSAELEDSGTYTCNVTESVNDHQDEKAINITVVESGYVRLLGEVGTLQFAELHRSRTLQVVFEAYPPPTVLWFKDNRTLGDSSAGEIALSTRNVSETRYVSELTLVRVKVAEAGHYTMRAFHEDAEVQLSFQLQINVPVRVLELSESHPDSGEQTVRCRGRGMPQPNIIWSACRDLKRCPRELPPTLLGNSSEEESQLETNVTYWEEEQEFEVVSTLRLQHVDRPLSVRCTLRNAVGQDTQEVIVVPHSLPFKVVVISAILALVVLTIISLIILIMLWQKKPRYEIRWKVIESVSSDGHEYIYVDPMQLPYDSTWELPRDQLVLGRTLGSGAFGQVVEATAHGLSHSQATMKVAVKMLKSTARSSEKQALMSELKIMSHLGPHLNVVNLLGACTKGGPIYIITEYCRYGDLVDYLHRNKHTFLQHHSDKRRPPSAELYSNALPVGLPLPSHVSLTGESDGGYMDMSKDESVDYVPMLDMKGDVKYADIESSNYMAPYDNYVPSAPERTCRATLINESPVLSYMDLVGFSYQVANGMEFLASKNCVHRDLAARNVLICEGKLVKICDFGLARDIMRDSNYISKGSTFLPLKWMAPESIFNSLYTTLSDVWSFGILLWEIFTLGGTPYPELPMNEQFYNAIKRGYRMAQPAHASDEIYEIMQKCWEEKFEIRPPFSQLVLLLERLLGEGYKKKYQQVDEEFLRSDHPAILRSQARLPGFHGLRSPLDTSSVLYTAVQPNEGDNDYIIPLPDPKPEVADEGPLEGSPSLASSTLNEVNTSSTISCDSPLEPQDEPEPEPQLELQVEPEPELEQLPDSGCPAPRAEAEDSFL

[3] = target: T1, Receptor-type tyrosine-protein kinase FLT3 (Homo sapiens, UniProt P36888); test: Inhibition of human FLT3 using MEK1 as substrate incubated for 40 mins by gamma33P-ATP based scintillation counter analysis
T1 sequence (P36888 whole entry): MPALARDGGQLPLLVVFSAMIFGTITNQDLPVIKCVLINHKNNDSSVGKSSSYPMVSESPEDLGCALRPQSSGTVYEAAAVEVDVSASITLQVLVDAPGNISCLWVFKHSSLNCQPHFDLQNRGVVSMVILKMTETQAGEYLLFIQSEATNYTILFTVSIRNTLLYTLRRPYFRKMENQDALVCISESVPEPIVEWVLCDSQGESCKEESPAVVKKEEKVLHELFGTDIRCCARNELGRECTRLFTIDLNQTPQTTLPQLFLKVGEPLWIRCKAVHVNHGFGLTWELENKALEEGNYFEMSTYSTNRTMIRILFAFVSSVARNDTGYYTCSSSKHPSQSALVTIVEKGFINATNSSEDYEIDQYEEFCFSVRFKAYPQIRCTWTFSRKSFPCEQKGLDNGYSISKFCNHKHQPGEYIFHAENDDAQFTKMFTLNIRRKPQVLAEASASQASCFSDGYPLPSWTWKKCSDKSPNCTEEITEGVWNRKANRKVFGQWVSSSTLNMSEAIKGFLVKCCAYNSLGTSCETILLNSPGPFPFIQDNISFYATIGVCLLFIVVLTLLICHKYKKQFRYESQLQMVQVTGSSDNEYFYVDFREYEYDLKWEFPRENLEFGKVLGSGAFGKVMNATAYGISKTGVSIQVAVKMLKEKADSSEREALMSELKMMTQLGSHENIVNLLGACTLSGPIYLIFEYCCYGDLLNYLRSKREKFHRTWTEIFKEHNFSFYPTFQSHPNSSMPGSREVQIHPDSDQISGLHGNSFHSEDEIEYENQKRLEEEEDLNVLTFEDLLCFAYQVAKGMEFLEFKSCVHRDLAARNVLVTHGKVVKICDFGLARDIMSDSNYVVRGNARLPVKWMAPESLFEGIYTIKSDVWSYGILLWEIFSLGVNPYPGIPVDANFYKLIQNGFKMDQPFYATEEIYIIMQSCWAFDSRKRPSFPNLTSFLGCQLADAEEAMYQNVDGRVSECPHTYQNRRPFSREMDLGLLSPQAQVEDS

[4] = target: Epidermal growth factor receptor (Homo sapiens, UniProt P00533); test: Inhibition of human EGFR using MEK1 as substrate incubated for 40 mins by gamma33P-ATP based scintillation counter analysis
Sequence of Epidermal growth factor receptor (P00533 whole entry): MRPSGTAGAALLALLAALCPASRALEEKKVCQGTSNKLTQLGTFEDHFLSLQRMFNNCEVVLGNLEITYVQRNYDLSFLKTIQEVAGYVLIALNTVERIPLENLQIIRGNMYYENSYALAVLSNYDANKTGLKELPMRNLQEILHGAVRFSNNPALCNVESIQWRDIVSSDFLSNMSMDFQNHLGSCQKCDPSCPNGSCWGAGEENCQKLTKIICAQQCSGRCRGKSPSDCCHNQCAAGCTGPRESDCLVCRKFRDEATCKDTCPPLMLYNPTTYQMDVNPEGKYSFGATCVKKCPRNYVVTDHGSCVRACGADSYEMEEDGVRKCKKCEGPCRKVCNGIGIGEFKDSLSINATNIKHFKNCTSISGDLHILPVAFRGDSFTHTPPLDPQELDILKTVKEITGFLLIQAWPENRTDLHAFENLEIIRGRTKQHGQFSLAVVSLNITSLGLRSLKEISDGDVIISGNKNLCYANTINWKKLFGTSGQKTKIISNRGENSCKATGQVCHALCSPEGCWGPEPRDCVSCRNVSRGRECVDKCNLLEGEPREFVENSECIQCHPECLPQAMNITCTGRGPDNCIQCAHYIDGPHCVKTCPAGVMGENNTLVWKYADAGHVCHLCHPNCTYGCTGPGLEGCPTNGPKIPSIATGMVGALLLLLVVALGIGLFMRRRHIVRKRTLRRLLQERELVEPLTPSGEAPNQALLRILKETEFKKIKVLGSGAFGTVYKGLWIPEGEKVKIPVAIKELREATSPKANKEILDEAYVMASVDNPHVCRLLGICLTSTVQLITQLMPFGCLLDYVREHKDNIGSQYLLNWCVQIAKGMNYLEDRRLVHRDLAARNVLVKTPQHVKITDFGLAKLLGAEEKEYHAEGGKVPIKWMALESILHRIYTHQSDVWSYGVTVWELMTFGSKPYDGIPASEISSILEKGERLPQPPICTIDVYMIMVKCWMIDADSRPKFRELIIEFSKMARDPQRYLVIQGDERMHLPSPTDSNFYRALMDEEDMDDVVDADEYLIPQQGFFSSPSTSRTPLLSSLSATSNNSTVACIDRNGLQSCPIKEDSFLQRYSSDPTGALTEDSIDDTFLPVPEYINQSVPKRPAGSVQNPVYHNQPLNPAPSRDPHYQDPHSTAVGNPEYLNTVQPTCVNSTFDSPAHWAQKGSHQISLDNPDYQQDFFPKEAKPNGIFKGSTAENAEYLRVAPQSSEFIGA

[5] = target: Vascular endothelial growth factor receptor 2 (Homo sapiens, UniProt P35968); test: Inhibition of human VEGFR2 using MEK1 as substrate incubated for 40 mins by gamma33P-ATP based scintillation counter analysis
PANC-1 = test: Antitumor activity against human PANC-1 cells xenografted in BALB/c nude mouse assessed as animal survival rate at 3 mg/kg, ip administered 6 times a week and measured for 100 days; assay type: functional; conditions: PANC-1, 2400 h, time 100 day
[6] = target: Mast/stem cell growth factor receptor Kit (Homo sapiens, UniProt P10721); test: Inhibition of human c-Kit using MEK1 as substrate incubated for 40 mins by gamma33P-ATP based scintillation counter analysis
Sequence of Mast/stem cell growth factor receptor Kit (P10721 whole entry): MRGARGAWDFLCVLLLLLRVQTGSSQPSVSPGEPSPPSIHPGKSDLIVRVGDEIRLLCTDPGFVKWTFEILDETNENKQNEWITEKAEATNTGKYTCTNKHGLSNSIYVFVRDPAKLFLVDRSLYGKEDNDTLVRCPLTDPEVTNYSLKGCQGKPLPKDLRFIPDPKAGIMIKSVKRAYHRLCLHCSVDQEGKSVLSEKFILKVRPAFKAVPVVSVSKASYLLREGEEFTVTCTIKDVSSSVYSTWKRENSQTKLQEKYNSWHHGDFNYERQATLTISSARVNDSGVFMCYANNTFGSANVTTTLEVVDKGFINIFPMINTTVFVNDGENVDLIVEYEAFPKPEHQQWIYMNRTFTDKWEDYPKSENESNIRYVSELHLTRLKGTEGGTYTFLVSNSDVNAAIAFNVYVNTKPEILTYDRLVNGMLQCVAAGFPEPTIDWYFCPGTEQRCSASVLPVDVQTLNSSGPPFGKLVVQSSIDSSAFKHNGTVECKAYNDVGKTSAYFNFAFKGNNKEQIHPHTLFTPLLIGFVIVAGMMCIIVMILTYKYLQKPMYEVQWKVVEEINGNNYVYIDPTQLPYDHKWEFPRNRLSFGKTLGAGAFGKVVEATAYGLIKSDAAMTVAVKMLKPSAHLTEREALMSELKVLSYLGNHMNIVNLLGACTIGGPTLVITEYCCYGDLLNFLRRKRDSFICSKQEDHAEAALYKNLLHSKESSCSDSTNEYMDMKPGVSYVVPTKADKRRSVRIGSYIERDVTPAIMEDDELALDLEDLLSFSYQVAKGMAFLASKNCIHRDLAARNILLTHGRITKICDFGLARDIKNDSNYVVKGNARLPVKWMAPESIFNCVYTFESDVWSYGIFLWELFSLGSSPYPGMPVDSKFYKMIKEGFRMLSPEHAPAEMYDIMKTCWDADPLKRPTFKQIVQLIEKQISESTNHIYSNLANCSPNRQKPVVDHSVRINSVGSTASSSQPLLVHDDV

Sequence of Macrophage colony-stimulating factor 1 receptor (P07333 whole entry): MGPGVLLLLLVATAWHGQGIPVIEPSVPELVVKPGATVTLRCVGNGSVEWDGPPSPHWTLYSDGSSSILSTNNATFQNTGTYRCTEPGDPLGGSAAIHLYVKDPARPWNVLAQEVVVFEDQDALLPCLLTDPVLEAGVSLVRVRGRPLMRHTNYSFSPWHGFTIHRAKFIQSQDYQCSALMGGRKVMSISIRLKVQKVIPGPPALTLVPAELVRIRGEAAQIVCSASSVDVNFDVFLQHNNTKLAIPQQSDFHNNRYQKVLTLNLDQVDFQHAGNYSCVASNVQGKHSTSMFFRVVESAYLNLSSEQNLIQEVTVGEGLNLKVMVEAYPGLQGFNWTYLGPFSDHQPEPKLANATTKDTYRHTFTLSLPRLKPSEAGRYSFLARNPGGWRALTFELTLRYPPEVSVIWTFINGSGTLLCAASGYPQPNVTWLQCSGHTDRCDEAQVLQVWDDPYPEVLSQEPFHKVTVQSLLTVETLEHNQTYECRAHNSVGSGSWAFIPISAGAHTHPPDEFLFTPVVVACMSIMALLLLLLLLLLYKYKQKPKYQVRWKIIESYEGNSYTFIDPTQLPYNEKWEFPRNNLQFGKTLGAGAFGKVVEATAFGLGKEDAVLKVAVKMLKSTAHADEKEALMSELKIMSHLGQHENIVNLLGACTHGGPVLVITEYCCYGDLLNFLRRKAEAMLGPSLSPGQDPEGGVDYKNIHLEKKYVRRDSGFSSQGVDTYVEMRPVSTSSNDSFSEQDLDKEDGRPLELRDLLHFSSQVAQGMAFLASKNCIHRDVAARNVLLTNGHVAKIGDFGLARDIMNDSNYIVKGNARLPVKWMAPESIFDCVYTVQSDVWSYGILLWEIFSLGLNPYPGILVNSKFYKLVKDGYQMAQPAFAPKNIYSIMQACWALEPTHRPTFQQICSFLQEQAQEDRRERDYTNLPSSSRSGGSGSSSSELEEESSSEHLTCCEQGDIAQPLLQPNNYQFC

Question: For `Cc1nc2c(c(C)c1O)/C(=C/c1ccc3ccccc3n1)C(=O)N2`, which IC50 [1] is on record?
Answer: 12.9 µM

Question: And the IC50 [2]?
Answer: 1 µM

Question: And the IC50 [3]?
Answer: > 10 µM

Question: And the IC50 [4]?
Answer: 18.8 µM

Question: What about the IC50 [5] of the same compound?
Answer: > 10 µM

Question: And the survival at 3 mg/kg (PANC-1)?
Answer: 100%

Question: What about the IC50 [6] of the same compound?
Answer: 5.7 µM
